Values quoted from earlier work as cited in patent publication US20250381197A1, “Regimen for Treating Amyotrophic Lateral Sclerosis Having Onset 24 Months Prior to Treatment” (Woolsey Pharmaceuticals, Inc., priority 2022, published 2025).
Where two headings read alike, the source gives them in different places.

Columns and labels:
[1] = tested on: ALS patients; conditions: 6-month study; ALS onset between 3 and 36 months; 30 mg twice a day; cited from earlier work
[2] = tested on: human ALS patients; conditions: 30 mg intravenously twice daily over 20 consecutive working days; 3 patients; cited from earlier work
[3] = 1-hydroxy (M3) metabolite; cited from earlier work
[4] = tested on: ALS patients; conditions: cited from earlier work

Cl.O=S(=O)(c1cccc2cnccc12)N1CCCNCC1 [Fasudil, Hexahydro-1-(5-isoquinolinesulfonyl)-1H-1,4-diazepine monohydrochloride hemihydrate]
disease modification [1]: did not result in any disease modification | outcome of compassionate use [2]: no conclusive results beyond safety

O=S(=O)(c1cccc2c(O)nccc12)N1CCCNCC1 [M3]
half-life [3]: about 8 hours

CC1=NN(c2ccccc2)C(=O)C1 [edaravone]
primary endpoint ([4]; enrollment narrowed to patients diagnosed two years or less (Tanaka 2016a)): met the primary endpoint | primary endpoint ([4]; enrollment of three years or less (Abe 2017)): did not meet the primary endpoint | treatment effect between placebo and edaravone ([4]; severe ALS patients, disease onset of less than three years (Tanaka 2016b)): failed to demonstrate any treatment effect
